Consider 5 compounds from patent US10800789B2, “Antiviral compounds” (Gilead Pharmasset LLC, priority 2012, dated 2020).

Structures are written as SMILES. Like-named read-outs stand apart in the source and are kept apart here. Where only a bound is given, the exact number is not on record here.

Data set [1] concerns stable HCV 1b RLuc replicon cells (dicistronic genotype 1b Con1 replicon). Put plainly: Renilla luciferase HCV replicon reporter assay, genotype 1b. Format: cell-based. The note with it: stable 1b Con1 RLuc replicon cells, 72 hours, read-out: 1b. The gist of the method: (§1)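 Cells carrying the stable or transiently transfected (Huh-Lunet) dicistronic RLuc replicons received 3-fold serial compound dilutions from 10 mM DMSO stocks. After 72 h, cells were lysed and Renilla luciferase read. DMSO served as the no-inhibition control and ITMN-191 above 100×EC50 as the positive control; EC50 by non-linear regression.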
(In general: In antiviral work, replicon cells carry a viral genome segment that copies itself.)

The subject of data set [2] is stable HCV 1a RLuc replicon cells (dicistronic genotype 1a H77 replicon). Briefly: Renilla luciferase HCV replicon reporter assay, genotype 1a. Particulars: stable 1a H77 RLuc replicon cells. The class given is cell-based. A digest of the protocol: as §1
For data set [3], the system named is Q30R in genotype 1a NS5A (1a Pi-Rluc replicon, Huh-7-derived cured-51 cells). Put plainly: Replicon assay against resistance mutant 1a Q30R. The class given is cell-based, HCV. The gist of the method:
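Q30R introduced by site-directed mutagenesis into the 1a Pi-RLuc replicon; replicon RNA transiently transfected into cured-51 cells. Cells treated with 3-fold serially diluted compound for 72 h, then lysed and Renilla luciferase measured; EC50 by non-linear regression.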

Data set [4] relates to stable HCV 2a JFH-1 Rluc replicon cells (L31 present in NS5A). Put plainly: Renilla luciferase HCV replicon reporter assay, genotype 2a JFH-1. Format: cell-based. A digest of the protocol: as §1
Data set [5] deals with NS5A chimeric genotype 2a JFH-1 replicon with genotype 2a J6 strain NS5A gene (M31 present). Briefly: Replicon assay, genotype 2a J6 NS5A chimera. The class given is cell-based, HCV. The gist of the method:
as §1

For data set [6], the system named is NS5A chimeric genotype 2a JFH-1 replicon with genotype 2b MD2b-1 strain NS5A gene (M31 present). Briefly: Replicon assay, genotype 2b NS5A chimera. The class given is cell-based, HCV. A digest of the protocol:
as §1

Data set [7] relates to NS5A chimeric genotype 1b Con1 replicon with genotype 3a S52 strain NS5A gene. Briefly: Replicon assay, genotype 3a NS5A chimera. The class given is cell-based, HCV.
Data set [8] has as its system NS5A chimeric genotype 1b Con1 replicon with genotype 4a ED43 strain NS5A gene. Put plainly: Replicon assay, genotype 4a NS5A chimera. Format: cell-based, HCV.
The nature of data set [9]: IV and PO single dose pharmacokinetic studies in SD rats. The class given is in vivo, male Sprague-Dawley (SD) rats. The note with it: male SD rats, PO 2 mg/kg vs IV infusion 1 mg/kg; for bioavailability: Sprague-Dawley, rat, plasma, read-out: Rat % F. The gist of the method:
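Fasted male Sprague-Dawley rats (250-300g, n=3/group) were given 1 mg/kg IV as a 30-min jugular infusion (5% ethanol/35% PEG 400/water pH 2.0) or 2 mg/kg by oral gavage (5% ethanol/55% PEG 400/citrate pH 2.2). Plasma was sampled to 24 h and analysed by LC/MS/MS. Non-compartmental parameters were derived, and %F was calculated from the oral/IV AUC ratio.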

Where [10] appears, read: Hepatitis C virus, 72 h, activity range.
Where [11] appears, read: Hepatitis C virus, read-out: 1a Q30R.
The mark [12] stands for this setting: Hepatitis C virus, read-out: 1a Q30R (nM).
Setting [13] is: Hepatitis C virus, read-out: 2a JFH (nM), genotype 2a JFH-1 replicon (L31 in NS5A), stable cells.
Where [14] appears, read: Hepatitis C virus, read-out: 2a JFH, stable 2a JFH-1 Rluc replicon cells, L31 in NS5A, activity range.
Setting [15] is: Hepatitis C virus, read-out: 2a J6 (t) (nM), genotype 2a J6 NS5A chimeric replicon (M31), transiently transfected (t) into Huh-Lunet cells.
[16] abbreviates: Hepatitis C virus, read-out: 2a J6 (t), transiently transfected (t) into Huh-Lunet cells, activity range.
Setting [17] is: Hepatitis C virus, 2BS, read-out: 2b (s), stably replicating replicon cells (s), activity range.
[18] abbreviates: Hepatitis C virus, read-out: 2b (s) (nM), genotype 2b MD2b-1 NS5A chimeric replicon (M31), stably replicating replicon cells (s).
[19] abbreviates: Hepatitis C virus, read-out: 2b (t) (nM), genotype 2b MD2b-1 NS5A chimeric replicon (M31), transiently transfected (t).
[20] abbreviates: Hepatitis C virus, read-out: 2b (t), transiently transfected (t) into Huh-Lunet cells, activity range.
The mark [21] stands for this setting: Hepatitis C virus, read-out: 3a (s) (nM), genotype 3a NS5A chimeric replicon, stable replicon cells (s).
[22] abbreviates: Hepatitis C virus, read-out: 3a (s), (s), activity range.
[23] abbreviates: Hepatitis C virus, read-out: 4a (s) (nM), genotype 4a NS5A chimeric replicon, stable replicon cells (s).
Where [24] appears, read: Hepatitis C virus, read-out: 4a (s), (s), activity range.

`COC(=O)N[C@H](C(=O)N1[C@@H](C)CC[C@H]1c1ncc(-c2ccc3c(c2)COc2cc4c(ccc5nc([C@@H]6CC[C@H](C)N6C(=O)[C@@H](NC(=O)OC)[C@@H](C)OC)[nH]c54)cc2-3)[nH]1)C(C)C` [DX, Methyl {(2S)-1-[(2S,4S)-2-(5-{2-[(2S,5S)-1-{(2S,3R)-3-methoxy-2-[(methoxycarbonyl)amino]butanoyl}-5-methylpyrrolidin-2-yl]-1,11-dihydroisochromeno[4′,3′:6,7]naphtho[1,2-d]imidazol-9-yl}-1H-imidazol-2-yl)-5-methylpyrrolidin-1-yl]-3-methyl-1-oxobutan-2-yl}carbamate]: the EC50 in data set [1] was 0.031 nM; in data set [2] (72 hours), 0.021 nM; in [2] (72 hours, activity range), under 0.1 nM; in [3] (Q30R mutant replicon transiently transfected into Huh-7-derived cured-51 cells, activity range, read-out: 1a Q30R), 0.1 to 0.999 nM; in data set [3] (Q30R mutant replicon transiently transfected into Huh-7-derived cured-51 cells, read-out: 1a Q30R), 0.138 nM; in data set [4] (genotype 2a JFH-1 replicon (L31 in NS5A), stable cells, read-out: 2a JFH) it was 0.019 nM. The EC50 in data set [4] (stable 2a JFH-1 Rluc replicon cells, L31 in NS5A, activity range, read-out: 2a JFH) is under 0.1 nM; in data set [5] (genotype 2a J6 NS5A chimeric replicon (M31), transiently transfected (t) into Huh-Lunet cells, read-out: 2a J6 (t)), 0.109 nM; in data set [5] (transiently transfected (t) into Huh-Lunet cells, activity range, read-out: 2a J6 (t)), 0.1 to 0.999 nM; in data set [6] (genotype 2b MD2b-1 NS5A chimeric replicon (M31), stably replicating replicon cells (s), read-out: 2b (s)) it was 0.201 nM; in [6] (genotype 2b MD2b-1 NS5A chimeric replicon (M31), transiently transfected (t), read-out: 2b (t)), 0.06 nM; in [6] (stably replicating replicon cells (s), activity range, read-out: 2b (s)), 0.1 to 0.999 nM. Besides, the EC50 in [6] (transiently transfected (t) into Huh-Lunet cells, activity range, read-out: 2b (t)) was under 0.1 nM; in data set [7] ((s), activity range, read-out: 3a (s)) it was under 0.1 nM; in data set [7] (genotype 3a NS5A chimeric replicon, stable replicon cells (s), read-out: 3a (s)) it was 0.048 nM; in data set [8] ((s), activity range, read-out: 4a (s)) it was under 0.1 nM; in data set [8] (genotype 4a NS5A chimeric replicon, stable replicon cells (s), read-out: 4a (s)), 0.018 nM. Further, the “Rat % F” value in data set [9] (oral bioavailability) was determined as 21.3%.
As to `COC(=O)NC(C(=O)N1[C@@H](C)CC[C@H]1c1nc2ccc3cc4c(cc3c2[nH]1)OCc1cc(-c2cnc([C@@H]3CC[C@H](C)N3C(=O)[C@@H](NC(=O)OC)C3CCOCC3)[nH]2)ccc1-4)C1CCOCC1` (stereo partly drawn) [EB, Methyl [(1 S)-2-[(2S,5S)-2-(5-{2-[(2S,5S)-1-{[(methoxycarbonyl)amino](tetrahydro-2H-pyran-4-yl)acetyl}-5-methylpyrrolidin-2-yl]-1,11-dihydroisochromeno[4′,3′:6,7]naphtho[1,2-d]imidazol-9-yl}-1H-imidazol-2-yl)-5-methylpyrrolidin-1-yl]-2-oxo-1-(tetrahydro-2H-pyran-4-yl)ethyl]carbamate], the EC50 was 0.051 nM in [1] (Hepatitis C virus, 72 h); 0.024 nM in data set [2] (Hepatitis C virus, 72 h); under 0.1 nM in [2] (setting [10]); under 0.1 nM in data set [3] (setting [11]); 0.042 nM in data set [3] (setting [12]); 0.012 nM in data set [4] (setting [13]). Besides, the EC50 in [4] (setting [14]) is under 0.1 nM; in data set [5] (setting [15]) it was 0.012 nM; in data set [5] (setting [16]), under 0.1 nM; in data set [6] (setting [17]) it was under 0.1 nM; in data set [6] (setting [18]), 0.038 nM; in [6] (setting [19]) it was 0.092 nM. The EC50 was under 0.1 nM in data set [6] (setting [20]); 0.075 nM in data set [7] (setting [21]); under 0.1 nM in data set [7] (setting [22]); 0.014 nM in [8] (setting [23]); under 0.1 nM in data set [8] (setting [24]). In addition, the bioavailability in [9] came to 4.2%.
Consider `CC[C@H](C)C(NC(=O)OC)C(=O)N1[C@@H](C)CC[C@H]1c1nc2ccc3cc4c(cc3c2[nH]1)OCc1cc(-c2cnc([C@@H]3CC[C@H](C)N3C(=O)[C@@H](NC(=O)OC)[C@@H](C)OC)[nH]2)ccc1-4` (stereo partly drawn) [EH, methyl{(3S)-1-[(2S,5S)-2-(9-{2-[(2S,5S)-1-{(2S,3R)-3-methoxy-2-[(methoxycarbonyl)amino]butanoyl}-5-methylpyrrolidin-2-yl]-1H-imidazol-5-yl}-1,11-dihydroisochromeno[4′,3′:6,7]naphtho[1,2-d]imidazol-2-yl)-5-methylpyrrolidin-1-yl]-3-methyl-1-oxopentan-2-yl}carbamate], for which the EC50 in [1] (Hepatitis C virus, 72 h) was 0.015 nM; in data set [2] (Hepatitis C virus, 72 h), 0.011 nM; in [2] (setting [10]) it was under 0.1 nM; in [3] (setting [11]) it was under 0.1 nM; in data set [3] (setting [12]), 0.082 nM; in data set [4] (setting [13]), 0.013 nM. Besides, the EC50 was under 0.1 nM in data set [4] (setting [14]); 0.086 nM in [5] (setting [15]); under 0.1 nM in data set [5] (setting [16]); 0.1 to 0.999 nM in data set [6] (setting [17]); 0.153 nM in [6] (setting [18]); 0.022 nM in data set [7] (setting [21]). Moreover, the EC50 is under 0.1 nM in data set [7] (setting [22]); 0.024 nM in [7] (Hepatitis C virus, read-out: 3a (t) (nM), genotype 3a NS5A chimeric replicon, transiently transfected (t)); under 0.1 nM in data set [7] (Hepatitis C virus, read-out: 3a (t), transiently transfected (t) into Huh-Lunet cells, activity range); 0.006 nM in data set [8] (setting [23]); under 0.1 nM in data set [8] (setting [24]). The bioavailability in data set [9] turned out to be 15.8%.
With `COC(=O)N[C@H](C(=O)N1[C@@H](C)CC[C@H]1c1ncc(-c2ccc3c(c2)COc2cc4c(ccc5nc([C@@H]6CC[C@H](C)N6C(=O)[C@@H](NC(=O)OC)[C@@H](C)OC)[nH]c54)cc2-3)[nH]1)C(C)C` [FA, Methyl [(2S)-1-{(2S,5S)-2-[5-(2-{(2S,5S)-1-[N-(methoxycarbonyl)-O-methyl-L-threonyl]-5-methylpyrrolidin-2-yl}-1,11-dihydroisochromeno[4′,3′:6,7]naphtho[1,2-d]imidazol-9-yl)-1H-imidazol-2-yl]-5-methylpyrrolidin-1-yl}-3-methyl-1-oxobutan-2-yl]carbamate], the EC50 in data set [1] (Hepatitis C virus, 72 h) is 0.014 nM; in data set [2] (Hepatitis C virus, 72 h) it was 0.011 nM; in data set [2] (setting [10]) it was under 0.1 nM; in [3] (setting [11]) it was under 0.1 nM; in data set [3] (setting [12]) it was 0.046 nM; in data set [4] (setting [13]) it was 0.014 nM. Besides, the EC50 in data set [4] (setting [14]) was under 0.1 nM; in [5] (setting [15]), 0.033 nM; in [5] (setting [16]), under 0.1 nM; in data set [6] (setting [17]), 0.1 to 0.999 nM; in data set [6] (setting [18]) it was 0.13 nM; in data set [6] (setting [19]), 0.036 nM. In addition, the EC50 was under 0.1 nM in data set [6] (setting [20]); 0.034 nM in [7] (setting [21]); under 0.1 nM in data set [7] (setting [22]); 0.011 nM in [8] (setting [23]); under 0.1 nM in [8] (setting [24]). The bioavailability in data set [9] worked out at 13.5%.
Consider `CC[C@H](C)[C@H](NC(=O)OC)C(=O)N1[C@H](c2ncc(-c3ccc4c(c3)COc3cc5c(ccc6nc([C@@H]7CC[C@H](C)N7C(=O)[C@@H](NC(=O)OC)C7CCOCC7)[nH]c65)cc3-4)[nH]2)C[C@@H]2CCC[C@@H]21` [IL], for which the EC50 in data set [1] (Hepatitis C virus, 72 h) is 0.034 nM; in [2] (Hepatitis C virus, 72 h), 0.028 nM; in [2] (setting [10]) it was under 0.1 nM; in [3] (setting [11]), under 0.1 nM; in data set [4] (setting [13]) it was 0.019 nM; in data set [4] (setting [14]), under 0.1 nM. Besides, the EC50 was 0.1 to 0.999 nM in data set [6] (setting [17]); 0.143 nM in data set [6] (setting [18]); 0.025 nM in data set [6] (setting [19]); 0.083 nM in [7] (setting [21]); under 0.1 nM in [7] (setting [22]); 0.04 nM in [8] (setting [23]). In addition, in data set [8] (setting [24]), the EC50 was under 0.1 nM. The bioavailability in data set [9] was 40.9%.
